Data on one compound can be found in PMC9029529, “Distinct Mechanisms of Cytotoxicity in Novel Nitrogenous Heterocycles: Future Directions for a New Anti-Cancer Agent” (Molecules, 2022).

This assay relates to MDA-MB-231 cells. As to the kind of experiment: ApoTox-Glo triplex assay (caspase 3/7). Format: cell-based, human. As to conditions: MDA-MB-231, 24 h, various concentrations. The text has this: The ApoTox-Glo® triplex assay was utilized to further evaluate the effect of compound 9 on the MDA-MB-231 cancer cell viability, cytotoxicity, and apoptosis. This assay employs a luminogenic peptide substrate for caspase 3/7 to measure caspase activity, which is used as a marker for apoptosis within the cells. […] However, since this assay was time-dependent, the level of cytotoxicity (Figure 7B) determined, in this case, was not a true representative of the compound’s cytotoxic potential; it is reasonable to say that at the endpoint of apoptosis (Figure 7C), a heightened level of cytotoxicity would be observed.
The Promega ApoTox-Glo® triplex assay was conducted as described by the manufacturer. Briefly, the cells were incubated at 37 °C for 12 h and then treated for 24 h with various concentrations of compound 9 [29, 30]. Next, 100 µL of the Viability and Cytotoxicity Reagent was added to each well and briefly mixed on an orbital shaker. Plates were incubated at 37 °C for 30 min, and the fluorescence was measured at the following two-wavelength sets—400Ex/505Em (Viability) and 485Ex/520 Em (Cytotoxicity)—using the Envision plate reader (Perkin Elmer). […] Finally, to determine the level of apoptosis, the luminescence associated with caspase 3/7 activation was measured using an Envision plate reader (Perkin Elmer).

For `COc1cccc(/C=C2\N=C(c3ccccc3)N(Nc3ccc([N+](=O)[O-])cc3[N+](=O)[O-])C2=O)c1` [Compound 9], the “caspase 3/7-mediated apoptosis” value is “induced caspase 3-/7-mediated apoptosis in a dose-dependent manner”.
